The values below are quoted from earlier work in patent US20240325432A1, “COMPOSITION AND METHODS OF TREATMENT USING TRANSDERMAL SUPPLEMENTATION” (Xygenyx Inc., priority 2023, published 2024).

For data set [1] the following is noted: as penetration enhancer.
Data set [2] has as its system wide dynamic range neurons in the ventroposterolateral nucleus of the thalamus. The following applies: believed.
The subject of another data set is F2-isoprostane. The following applies: 1600-3200 IU/day.
The conditions of data set [3]: compared to α-tocopherol = 1.0.
For a further data set, the system named is rheumatoid arthritis. The settings on record: arthritic subjects.
For data set [4] the following is noted: even when dietary intake occurs in equal portions.
Data set [5] concerns markers of inflammation in the blood. The settings on record: individuals with metabolic syndrome.
The conditions of data set [6]: in vivo.

Bounds are passed on as bounds.

On to `CC(C)[C@@H]1CC[C@@H](C)C[C@H]1O` [Menthol], for which the “increase of transdermal drug uptake (factor)” value in [1] was no less than 10.
For `CCCCCc1cc(O)c2c(c1)OC(C)(C)C1CCC(C)=CC21` (stereo not drawn) [THC, Δ-9-tetrahydrocannabinol], in data set [2], the “analgesic power relative to morphine” value is listed as “ten times more powerful than morphine”.
For `CC12CCC(CC1)C(C)(C)O2` [eucalyptol, 1,8-epoxy-p-menthane], the “increase of transdermal drug uptake (factor)” value in [1] is “more than 10”.
On to `Cc1c(C)c2c(c(C)c1O)CC[C@@](C)(CCC[C@H](C)CCC[C@H](C)CCCC(C)C)O2` [α-tocopherol], for which the “blood plasma concentration of F2-isoprostane” value in the data set with F2-isoprostane is “significantly lower”. Further, the “reduction in the development of age-related cataracts” value (400-500 IU in combination with 10-20 mg β-carotene and 400-500 mg vitamin C) is given as 23%. In addition, where the note is “dietary supplementation, doses up to 400 IU/day”, the “reduction of risk of coronary disease” value is listed as “up to 34%”. In addition, the “reduction of risk of developing neurodegenerative diseases (Alzheimer's Syndrome or dementia)” value (dietary supplementation, doses up to 400 IU/day, controlled trials) is listed as no more than 24%. The relative biological activity in data set [3] is on record as 1.0.
As for `C=C1CC/C=C(\C)CC[C@@H]2[C@@H]1CC2(C)C` [β-caryophyllene], in the data set on rheumatoid arthritis, the “swelling of joints and lymph nodes” value was “reduced swelling of joints and lymph nodes”.
With `Cc1cc(O)c(C)c2c1O[C@](C)(CCC[C@H](C)CCC[C@H](C)CCCC(C)C)CC2` [β-tocopherol], the relative biological activity in [3] was 0.5.
Take `Cc1c(O)cc2c(c1C)O[C@](C)(CCC[C@H](C)CCC[C@H](C)CCCC(C)C)CC2` [γ-tocopherol]: the relative biological activity in data set [3] is recorded as 0.1. Besides, the “concentration in vivo relative to α-tocopherol” value in [4] is “roughly 10%”.
Turning to `Cc1cc(O)cc2c1O[C@](C)(CCC[C@H](C)CCC[C@H](C)CCCC(C)C)CC2` [δ-tocopherol], the relative biological activity in data set [3] is given as 0.03. Besides, in data set [5], the “markers of inflammation in the blood” value is “reduced markers of inflammation”.
Take “HGH: hormone comprising a peptide chain that is synthesized in the pituitary gland”: the biological half-life in [6] is given as 10-20 minutes.
